Test results taken from patent publication US10858398B2, “Lytic peptide biosensor and methods of making and using the same” (Deetex, LLC, priority 2018, dated 2020).

What was measured:
Type in all cases: cell-based
[1] = system: lacZ transfected E. coli; experiment: Bacterial Assay: 1:2 dilution series of LL-37 on IPTG-induced lacZ transfected E. coli, X-gal colour change; settings: 15 minutes room temperature, X-gal 15 minutes 37° C.
Procedure: E. coli cells transfected with the lacZ gene that encodes the protein β-galactosidase were obtained. The cells were plated to produce isolate colonies that were then selected.
An isolate colony of lacZ transfected E. coli from the plate of Example 2 was looped and inoculated into 10 mL of RPMI 1640 medium+glucose (available from ThermoFisher Scientific, Waltham, Mass.) and incubated at 37° C. for 24 hours.
The liquid bacterial culture from Example 3 was removed from incubation and centrifuged at 1200 RPM for 7 minutes. The supernatant was removed, and the bacterial pellet was resuspended in 1 mL of RPMI 1640 (−glucose) liquid tissue culture medium as Sample A. A 15 mL centrifuge tube was filled with induction media (8.9 mL RPMI 1640 (−glucose), 100 μL induced IPTG. 1 mL of the resuspended bacterial culture from Sample A was added to the new tube as Sample B, for a final volume of 10 mL. Sample B was incubated at 37° C. for 60 minutes.
After incubation, 100 μL of Sample B was transferred to each of wells A1-A12 and B1-B12. 10 μL of a 2000 μM LL-37 stock solution was then added to well A1, and a 1:2 dilution was conducted across wells A2-A11. The dilution was repeated for wells B1-B11. No LL-37 solution was added to wells A12 and B12 (controls). The plate was incubated for 15 minutes at room temperature. […]

[2] = system: Non-induced E. coli cells; experiment: β-galactosidase release colour change assay (X-gal), non-induced control cells; settings: 100 μM LL-37; non-induced cells (Group 4); 15 minutes, then X-gal 15 minutes at 37° C.
Procedure: (§1) Non-induced E. coli cells were deposited in wells F1-F3 (control). The cells were treated as follows: Group 1, 10% SDS was added to wells A1-A3, B1-B3, and C1-C3; Group 2, 100 μM LL-37 was added to D1-D3; Group 3, untreated induced bacterial cells in wells E1-E3 (control); Group 4, 100 μM LL-37 added to wells F1-F3. Samples were incubated for 15 minutes post-treatment, and 20 μL of 20 mg/mL X-gal substrate was added to each well and allowed to incubate for 15 minutes at 37° C.

[3] = system: E. coli bacterial cells induced to produce β-galactosidase; experiment: β-galactosidase release colour change assay (X-gal), induced bacteria in welled plate; settings: then X-gal 15 minutes at 37° C.
Procedure: as §1
A plate was designed as set forth in FIG. 6a: Group 5, induced bacterial cells treated with 100 uM LL-37 (wells A1-A3, B1-B3, C1-C3); Group 6, induced bacterial cells treated with 10% PBS (wells D1-D3), Group 7, non-induced bacteria treated with a lytic agent (wells E1-E3); Group 8, non-induced bacteria untreated (wells F1-F3); Group 9, induced bacteria treated with a lytic agent (wells G1-G3); and Group 10, untreated induced bacteria.
Samples were incubated for 15 minutes post-treatment, and 20 uL of 20 mg/mL X-gal substrate was added to each well and allowed to incubate for 15 minutes at 37° C.
A plate was designed as set forth in FIG. 7a: Group 11, induced bacteria were treated with 100 uM LL-37 (wells A1-A3, B1-B3, and C1-C3); Group 12, induced bacteria that were untreated (wells D1-D3). […]

[4] = system: induced bacteria, lyophilized; experiment: Bacterial Assay IV: lyophilized and rehydrated induced bacteria, X-gal colour change in tubes; settings: 100 uM LL-37, rehydrated after 72 hours, X-gal 15 minutes at 37° C.
Procedure: Aliquots of induced bacteria were prepared with 1 mL of the sample dispensed into three Eppendorf tubes. Samples were then lyophilized. After 72 hours to ensure stability, tubes were rehydrated with 1 mL of RPMI 1640 (+) Glucose culture medium and treated. 50 uL of 20 mg/mL X-gal substrate was added to each tube and allowed to incubate for 15 minutes at 37° C.

| Compound | visual color change, higher concentrations of dilution series ([1]; wells A1-A5 and B1-B5, 10 μL of 2000 μM stock in well 1, then 1:2 dilution) | visual color change, lower concentrations of dilution series ([1]; wells A6-A11 and B6-B11 of the 1:2 dilution series) | colorimetric result (color change pink to blue) [2] | colorimetric result (color change pink to blue, release of β-galactosidase) ([3]; 100 μM LL-37, 15 minutes post-treatment) | tube color change pink to blue (release of β-galactosidase) [4] | colorimetric result (color change pink to blue, release of β-galactosidase) ([3]; 10% SDS, 15 minutes post-treatment) |
| --- | --- | --- | --- | --- | --- | --- |
| LL-37: anti-microbial alpha-helical 37 amino acid peptide released from human cathelicidin; membrane lytic peptide, human or synthetic | appeared blue | remained pink | remained pink | completely converted the well color from pink to blue | converted the tube color from pink to blue | – |
| CCCCCCCCCCCCOS(=O)(=O)[O-].[Na+] [SDS] | – | – | – | – | – | mild color change |
